Assay results as given in a melting point compilation (Tetko et al.; mined from patent text by program, amines drawn as free bases though some values may be those of a salt).

| SMILES | melting point [°C] |
| --- | --- |
| O=C1CCCC2=C1C(c1ccc(F)c(I)c1)C1=C(CCS1)N2 (stereo unspecified) | > 250 |
| CCCOc1cc(NC(=O)C[C@H]2O[C@H](c3cccc(OC)c3OC)c3cc(Cl)ccc3N(CC(C)(C)CO)C2=O)cc2cc(C(=O)O)oc12 | 175 to 177 |
| CC(=O)C(=O)Nc1ccc(-c2ccc(C(=O)O)c(=O)[nH]2)cc1 | > 280 |
| CCCn1nc2c(N)nc3ccccc3c2c1CC1(O)CCC1 | 191 to 193 |
| CCOC(=O)c1sc(C)c2c1CCCC2=O | 76 to 77 |
| O=P(Oc1ccccc1O)(Oc1ccccc1O)c1ccccc1 | 270 |
| CCOCc1nc2c(N)nc3ccccc3c2n1CCCCS(=O)(=O)NC1CCCCC1 | 197 to 198 |
| O=C(O)/C=C/n1cnc2ccc(O)cc2c1=O | 294 to 296 |
| COC(=O)C1(C(=O)OC)CN(C(=O)OC(C)(C)C)c2cc([N+](=O)[O-])ccc21 | 132 |
| O=C(NC[C@@H](C(=O)NO)N1CCCCC1)c1ccc(OCc2ccncc2)cc1 | 190 |
| CCCCCS(=O)(=O)NC(=O)CCc1ccc(OCCOC)cc1OCC1CC1 | 81.7 to 82.8 |
| CS(=O)(=O)n1c(C#N)nc2cc3c(cc21)OC(F)(Cl)C(F)(Cl)O3 (stereo unspecified) | 123 to 126 |
| CCCCc1nc(CCC)nn1Cc1ccc(-c2ccccc2-c2nnn[nH]2)cc1 | 170 |
| CCCCC(CO)Nc1ccc([N+](=O)[O-])cc1C(=O)NCc1ccc2c(c1)OCO2 (stereo unspecified) | 112 to 115 |
| CCCCn1nc(-c2ccc(F)cc2)c(-c2ccc(S(C)(=O)=O)cc2)cc1=O | 111 to 113 |
| C=CCSc1nc(N)nc2c1ncn2C1C=CC(CO)C1 (stereo unspecified) | 108 to 110 |
| CN(C)C1CCN(S(=O)(=O)c2cc(C#N)ccc2Oc2cc(F)ccc2F)CC1 | 154 to 157 |
| Cc1nc(Nc2ccccc2)sc1-c1ccnc(Nc2ccc(N3CCOCC3)cc2)n1 | 290 to 291 |
| O=C(O)CCC(=O)c1ccc(-c2ccc(Cl)cc2)o1 | 142 to 144 |
| Nc1ccc(C(=O)CCc2ccc(Cl)c(Cl)c2)cc1 | 127 to 129 |

| SMILES | melting point [°C] |
| --- | --- |
| N=C(N)Nc1nc(CSCCNc2c(NCc3ccncc3)c(=O)c2=O)cs1 | 172 to 175 |
| CCCCn1c(C)nc(SC)nc1=O | 62 to 63 |
| CC(=S)NC[C@H]1CN(c2ccc3c(c2)C[C@@H](C)N3C=O)C(=O)O1 | 95 to 96 |
| CN(C)S(=O)(=O)Cc1ccccc1C(=O)O | 112 to 119 |
| CCOc1cnc(C2=NC(=O)C(C)(C(C)C)N2)c(C(=O)O)c1 (stereo unspecified) | 140 to 144 |
| CC1(C)C(=O)N(c2ccc(C#N)c(C(F)(F)F)c2)C(=O)N1CCCCCl | 80 to 81 |
| CC(=O)Nc1ccc(S(=O)(=O)NCC2CCN(C[C@H]3COc4ccc(Cl)cc4O3)CC2)cc1 | 173 to 176 |
| CS(=O)c1cccc2c1CC(=O)N2C(N)=O (stereo unspecified) | 198 to 200 |
| CC1Cc2cc(S(=O)(=O)n3cc(-c4ccccc4)[nH]c3=O)ccc2N1C(=O)c1ccc([N+](=O)[O-])cc1 (stereo unspecified) | 168 to 172 |
| CC(=O)Nc1c(C(=O)c2cccc(C)n2)[nH]c2cc(Cl)c(Br)cc12 | 234 to 236 |
| C[C@H](NC(=O)c1c[nH]c2ncc(-c3ccc(C(=O)NC4CCOCC4)s3)nc12)C(C)(C)C | 333 to 334 |
| O=[N+]([O-])c1cccc(NN=C(c2ccc(Cl)cc2)c2ccc(Cl)cc2)c1 | 170 to 172 |
| N#CC(=C1C=CC(=NOC(=O)C(Cl)(Cl)Cl)C=C1)c1ccccc1 | 147 to 148 |
| CCOC(=O)c1ccc(COc2cc(O)c(C(C)=O)cc2CC)cc1O | 145 to 146 |
| c1ccc(-c2cnc(NC3CCC(CCN4CCN(c5ccccc5)CC4)CC3)nc2)cc1 (stereo unspecified) | 170 |
| Nc1ccc(-c2ncccn2)cc1 | 236 to 238 |
| CCOC(=O)c1[nH]nc(-c2ccc(C#N)cc2)c1C | 148 |
| CC(=O)OCc1c(Br)cccc1N1CCc2c(sc3c2CCCC3)C1=O | 74 to 75 |
| CC(=O)NCc1cccc2c1C(=O)N(C1CCC(=O)NC1=O)C2=O (stereo unspecified) | 177 to 179 |
| CCCCCCCCCCCCOc1ccc(C(=O)Oc2ccc(C(=O)OC3CCC(CCC)(CCC)OC3=O)cc2)cc1 (stereo unspecified) | 91 |

| SMILES | melting point [°C] |
| --- | --- |
| C=C1[C@H](CO)[C@H](O)[C@H](O)[C@H]1OCc1ccccc1 | 122 to 124 |
| S=c1cc(Oc2c(Cl)cccc2Cl)c2cc(Cl)ccc2s1 | 208 to 210 |
| COc1cc(C(=N)N)ccc1O | > 240 |
| CC(C)[C@H](NC(=O)N(C)Cc1ccccn1)C(=O)N[C@@H](Cc1ccccc1)[C@@H](O)[C@@H](O)[C@H](Cc1ccccc1)NC(=O)OC(C)(C)C | 91 to 93 |
| N#Cc1cc(C(O)CN(Cc2ccccc2)Cc2ccccc2)cc2c1NCC2 (stereo unspecified) | 139 to 140 |
| O=C(/C=C/c1ccc(O)cc1)C(F)(F)F | 106 to 107 |
| C=CC(=O)O[C@H]1CC[C@H](c2ccccc2)CC1 | 67.3 |
| N#Cc1ccc(/C=C/C(=O)/C=C/c2ccc(C#N)cc2)cc1 | 137 to 138 |
| COc1c(N2CCC(N)C2)c(F)c(N)c2c(=O)c(C(=O)O)cn(C3CC3)c12 (stereo unspecified) | 254 to 257 |
| CCCCCN(Cc1ccc(-c2ccccc2S(=O)(=O)NC(=O)c2ccccc2Cl)cc1)C(=O)N(Cc1ccccc1)c1ccccc1 | > 60 |
| CCCCc1cc2c(=O)n3cc(C(=O)O)ccc3nc2s1 | 250 to 252 |
| C#Cc1ccc(NC(=O)OC(C)(C)C)c([N+](=O)[O-])c1 | 102 |
| CCCCCCNc1nc(N)ccc1[N+](=O)[O-] | 69 to 73 |
| Cc1cc(Cl)ccc1-c1cc(F)cc2c1NC(CN)CO2 (stereo unspecified) | 90 |
| O=C1CC(c2ccc3oc4c(c3c2)CCCC4)CC(=O)N1 | 184 to 193 |
| Cc1noc(C)c1-c1ncccc1OC1SCC(O)C(O)C1O (stereo unspecified) | 112 |
| Cc1cc(Br)c2nc(Cl)ccc2c1 | 107 to 108 |
| CCCCCCCCCCOc1ccc(-c2nc(-c3c(Cl)cccc3Cl)nn2C)cc1 | 60 to 64 |
| NC(=O)N1C(=O)C(C(=O)c2cccs2)c2ncc(F)cc21 (stereo unspecified) | 265 |
| CC(Cc1c[nH]c2ccccc12)(NC(=O)OC1C2CC3CC(C2)CC1C3)C(=O)NC(CN=[N+]=[N-])Cc1ccccc1 (stereo unspecified) | 77 to 78 |

Results, then the compound that gave them:

| melting point [°C] | SMILES |
| --- | --- |
| 164 to 165 | Cc1oc(-c2ccccc2)nc1COc1ccc(COc2nn(-c3ccccc3)cc2CC(=O)O)cn1 |
| 201 to 202 | CCOC(=O)CCC(=O)c1cnc2c(OC)cccc2c1NCc1ccccc1 |
| 102 to 103 | CON=C1COc2cc(OCc3ccccc3N(OC)C(=O)OC)ccc21 |
| 143 to 145 | CCOC(=O)c1ccc(-c2nc(COc3ccc(COc4nn(-c5ccccc5)cc4C=O)cc3OC)c(C)o2)o1 |
| 75.2 | CCCOc1ccccc1CN1N=C(CCC)C(=CNc2ccccc2CC)C1=O |
| 165 to 167 | COc1ccc2c(c1)c(Cc1nc3c(F)c(F)cc(F)c3s1)cn2CC(=O)O |
| > 340 | COc1ccc2[nH]c3cc(-c4cccc([N+](=O)[O-])c4)c4c(c3c2c1)C(=O)NC4=O |
| 63 to 65 | COc1cc(OC)cc(Sc2ccc([N+](=O)[O-])cc2)c1 |
| 101 | CN(CCCl)S(=O)(=O)c1ccc2ccccc2c1 |
| 160 to 161 | Cn1c(CNCC(C)(C)C)cc2cc(NC(=O)c3ccc(C#CC4(O)CCC4)cc3)ccc21 |
| 68 to 71 | Cc1ccccc1C(=O)Nc1ccc(C(=O)N2c3ccccc3CNc3ccccc32)cc1 |
| 108 to 111 | Cc1ccc(-c2cn(C)cc(-c3ccccc3)c2=O)cc1C |
| 233 to 235 | Nc1ccc(Oc2c(NCc3ccco3)cc(C(=O)O)cc2S(N)(=O)=O)cc1 |
| 68 to 72 | CC(C)(C)c1ccccc1N1CCN(C(=O)Nc2ccccc2)CC1 |
| 129 to 130 | CNc1nc2c(C)cccc2c2c1ccn2-c1ccccc1C |
| 254 to 255 | CCCCc1nc2cc(Br)cc(C(=O)O)c2n1Cc1ccccc1Cl |
| 248 to 252 | Cc1c(CCc2ccccc2)c(=O)oc2cc(O)cc(O)c12 |
| 107 to 120 | CN(C(=O)N1Cc2nc(C(O)c3ccccc3)n(Cc3ccccc3)c2CC1CO)c1ccccc1 (stereo unspecified) |

| melting point [°C] | SMILES |
| --- | --- |
| 116 to 118 | Cc1ccc(C(=O)c2ccc(CC#N)n2C)c(Cl)c1 |
| 158 to 160 | O=c1[nH]cccc1Cc1ccccc1 |
| 208 to 209 | COc1cc2c(c3ccccc13)N(C(C)=O)c1ccccc1S2 |
| 183 to 185 | O=C(c1ccc(F)cc1C(F)(F)F)N1Cc2cccnc2Nc2ccccc21 |
| 68 to 75 | COC(=O)C(c1ccc(OCCNC(=O)C2Cc3ccccc3N2S(=O)(=O)c2ccc(-c3cc(C(F)(F)F)ccc3Cl)cc2)cc1)C(C)C (stereo unspecified) |
| 141 to 142 | CNC(=O)CCC(=NOCc1ccc(OCc2nc(-c3ccccc3)oc2C)cc1)c1ccccc1 |
| 207 to 209 | CCc1ccc(-n2c(-c3cccnc3)nc(SC)c(C#N)c2=O)cc1 |
| 52 to 54 | COC(=O)C[C@H]1[C@@H](C(C)=O)C(=O)N1C(c1ccccc1)(c1ccccc1)c1ccccc1 |
| > 300 | CC(=O)Nc1nc(O)c2cc(C=Cc3ccc(C(=O)O)cc3)cnc2n1 |
| 110 | COc1ccc2c(c1)c(OC(C)C)c(C(=O)O)n2-c1ccccc1 |
| > 290 | CC(=O)Nc1c(C(=O)c2cccc(C(=O)O)c2)[nH]c2cc(Cl)ccc12 |
| 87 to 89 | O=C(Nc1ccccc1N1CCc2ccccc21)C1CCCCC1 |
| 210 to 212 | COc1cn(-c2cccnc2)nc(-c2ccnn2-c2ccccc2)c1=O |
| 98 to 100 | CC(C)(C)OC(=O)/C(=C/c1ccc(Br)cc1)C(=O)c1ccccc1O |
| 135 to 137 | Cc1cc(-n2ccc(OCCCO)cc2=O)sc1C(=O)NCc1cccc(F)c1 |
| 117 to 119 | CCOC(=O)Cc1c(COC(C)=O)[nH]c(C(=O)OCc2ccccc2)c1C |
| 95 to 101 | CC(C)Cn1c(CCCCNC(=O)c2ccccc2)nc2c(N)nc3ccccc3c21 |
| 177 to 180 | COCCOc1cc2ncnc(NC3=CC(=O)C(Oc4ccccc4)=CC3=O)c2cc1OC |
